Patent US11492325B2, “Compounds as inhibitors of sodium channels” (Human BioMolecular Research Institute, priority 2016, dated 2022)
Read-outs that look alike come from different tables or passages of the source.

Key:
Male BALBc mice = conditions: mice, 100 mg/kg; for behavioral effects at 100 mg/kg: enantiomers
From the text: Male BALBc mice (20-22 g) were used throughout these studies. The animals were maintained in a temperature-controlled room with 12-hr periods of light and darkness and had continuous access to water and animal food. […] Groups contained 2-4 animals.

[1] = Metabolic stability in human liver microsomes; assay type: in vitro ADME; conditions: human, microsomes
Procedure: (§1) A typical incubation contained rat, mouse, dog or human liver microsomes (0.4-0.5 mg of protein), 100 mM potassium phosphate buffer (pH7.4), 50 μM test compound, an NADPH-generating system consisting of 0.5 mM NADP^+, 0.5 mM glucose-6-phosphate, 1 IU/mL glucose-6-phosphate dehydrogenase, 1 mg/mL diethylenetriaminepentaaceticacid (DETAPAC), and 3 mM MgCl2 in a final incubation volume of 0.25 mL. […] After centrifugation at 3000 rpm for 5 min, the organic fraction was collected, the solvent was removed with a stream of argon and the residue was reconstituted in 125 μL of MeOH and 125 μL H2O, mixed thoroughly, centrifuged at 13,000 rpm for 5 min and analyzed by high performance liquid chromatography. Samples were run on a Hitachi D-7000 HPLC system using a L-7100 analytical pump, L-7400 UV-Visible variable wavelength detector, and L-7600 automatic sample injector. […] Disappearance of the analyte was monitored over time. A plot of the area under the curve for the normalized analyte versus time afforded the half-life values and kapp.

[2] = Metabolism in human hepatic S9; conditions: for Liver S-9 T1/2: s9
Procedure: as §1
Microsomes contain CYPs and FMO metabolic enzymes. S9 contains soluble enzymes (i.e., aldehyde oxidase, MAO, etc.).

[3] = target: hERG potassium channel (IKr) (Homo sapiens, UniProt Q12809); assay: Automated patch clamp, hERG (IKr) expressed in CHO cells; conditions: for IC50: hERG (IKr) IC50, CHO cells
hERG potassium channel (IKr), sequence (Q12809 whole entry): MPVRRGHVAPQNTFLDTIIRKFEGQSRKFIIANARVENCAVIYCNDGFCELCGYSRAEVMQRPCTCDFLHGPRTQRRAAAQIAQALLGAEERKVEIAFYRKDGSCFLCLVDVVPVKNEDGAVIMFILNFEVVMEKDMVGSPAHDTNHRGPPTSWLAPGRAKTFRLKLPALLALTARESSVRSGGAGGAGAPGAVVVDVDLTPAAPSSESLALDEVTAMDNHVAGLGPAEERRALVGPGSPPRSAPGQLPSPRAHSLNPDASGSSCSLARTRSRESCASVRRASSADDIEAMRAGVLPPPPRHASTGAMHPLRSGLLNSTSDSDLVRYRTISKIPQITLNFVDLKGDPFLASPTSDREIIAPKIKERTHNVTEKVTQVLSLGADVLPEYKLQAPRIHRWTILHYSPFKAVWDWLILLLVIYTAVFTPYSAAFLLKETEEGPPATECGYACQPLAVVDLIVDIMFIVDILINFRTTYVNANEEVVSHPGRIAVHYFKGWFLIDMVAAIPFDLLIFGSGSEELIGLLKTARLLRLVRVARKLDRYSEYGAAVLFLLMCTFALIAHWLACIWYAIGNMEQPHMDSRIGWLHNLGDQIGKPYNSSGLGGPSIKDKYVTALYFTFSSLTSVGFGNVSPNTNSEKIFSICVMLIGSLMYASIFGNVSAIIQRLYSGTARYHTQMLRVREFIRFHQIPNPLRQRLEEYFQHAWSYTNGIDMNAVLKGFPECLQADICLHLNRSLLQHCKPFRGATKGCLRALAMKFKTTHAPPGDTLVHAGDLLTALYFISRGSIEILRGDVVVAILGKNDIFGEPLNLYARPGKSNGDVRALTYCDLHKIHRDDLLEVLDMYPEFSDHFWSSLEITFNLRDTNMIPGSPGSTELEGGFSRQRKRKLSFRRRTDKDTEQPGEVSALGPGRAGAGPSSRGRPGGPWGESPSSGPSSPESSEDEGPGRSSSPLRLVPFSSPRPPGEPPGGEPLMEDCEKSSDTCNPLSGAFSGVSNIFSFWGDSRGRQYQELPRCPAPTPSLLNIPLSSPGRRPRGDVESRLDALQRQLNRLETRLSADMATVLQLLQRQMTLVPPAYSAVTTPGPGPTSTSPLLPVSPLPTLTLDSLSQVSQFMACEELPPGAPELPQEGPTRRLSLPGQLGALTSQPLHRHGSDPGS

[4] = test system: cardiomyocytes derived from hiPSCs from a LQTS3 patient; conditions: LQT3 cardiomyocytes
[5] = target: Nav1.5 sodium channel transfected into HEK293 cells (Homo sapiens, UniProt Q14524); assay: Patch clamp electrophysiology, peak (INaP) and late (INaL) sodium current in transfected cells
Procedure: (§2) This provided data to investigate the physiology and action of target compounds on individual ion channels. The assay used standardized protocols for culturing and conducting conventional whole cell recording that have been previously developed for both current and voltage-clamp to characterize action potentials using transfected cells. Briefly, the Nav1.5 sodium channel was transfected into HEK293 cells. […] Briefly, cells were plated on 0.1% gelatin-coated 35-mm plastic Petri dishes. […] Data was reported as IC50 values±STD (Table 1).

[6] = target: Nav1.5 sodium channel, peak current (INaP) (Homo sapiens, UniProt Q14524, form not given); assay: in vitro; conditions: Peak Na+ (INaP) IC50
Procedure: as §2

[7] = test system: cardiomyocytes derived from hiPSCs from a LQTS3 patient; assay: cells; conditions: Homo sapiens, Cardiomyocyte, read-out: LQT-IC50 (uM)-Shortening
[8] = test system: normal human induced pluripotent stem cell (hiPSC) cardiomyocyte; conditions: normal hiPSC cardiomyocytes; for WT-Fold Prolongation: APD
[9] = Chemical stability in PBS buffer at pH 7.4 or 3.0, 37° C.; assay type: physicochemical; conditions: 1% Ethanol
Procedure: A typical incubation contained 100 μM of the test compound prepared in PBS buffer (pH 7.4 or 3.0, 50 mM) with 1% Ethanol. The test compounds were incubated at 37° C. An aliquot from incubations was taken at various times and injected onto an RP-HPLC system as described above. Disappearance of the analyte was monitored over time.

[10] = pH 3, 100 μM in PBS, read-out: Half-Life @ pH 3.0 and 37° C.
[11] = pH 7.4, 100 μM in PBS, read-out: Half-Life @ pH 7.4 and 37° C.

Row | Structure (SMILES) | IC50 [3] [µM] | DKr/NaL ([3]; ratio hERG IC50/late Na IC50) | DNaP/Kr ([3]; ratio peak Na IC50/hERG IC50) | LQT-Cessation Dose [4] [µM] | LQT-Fold Shortening [4] | DNap/NaL ([5]; ratio peak IC50/late IC50) | IC50 [6] [µM] | IC50 [7] [µM] | WT-Fold Prolongation [8] | also measured
1 | Cc1cc(C)cc(OCC(N)c2ccccc2)c1.Cl (stereo in doubt) [(R)-70] | – | – | – | – | – | – | – | – | – | Behavior Effect (R)-enantiomer (Male BALBc mice): No detectable effect; behavioral effects at 100 mg/kg (Male BALBc mice): no apparent behavioral effects; Liver Microsomes T1/2 [1]: 0.282 days; Liver S-9 T1/2 ([2]; human): 0.7049 days
2 | Cc1cccc(C)c1OC[C@H](C)N [(S)-Mexiletine, reference compound] | – | – | – | – | – | – | – | – | – | Liver S-9, remaining after 1 hr ([2]; human liver S-9, 1 hr): >95% after 1 hr
3 | Cl.NC(COc1cc(C(F)(F)F)cc(C(F)(F)F)c1)c1ccccc1 (stereo in doubt) [(R)-78] | – | – | – | – | – | – | – | – | – | Behavior Effect (R)-enantiomer (Male BALBc mice): No detectable effect; behavioral effects at 100 mg/kg (Male BALBc mice): no apparent behavioral effects; Liver Microsomes, remaining after 1 hr [1]: >95% after 1 hr; Liver S-9, remaining after 1 hr ([2]; human, s9, 1 h): >95% after 1 hr
4 | Cc1ccccc1OCC(N)c1ccccc1.Cl (stereo in doubt) [(R)-25] | – | – | – | – | – | – | – | – | – | Liver S-9 T1/2 ([2]; human): 0.283 days
5 | Cc1ccc(OCC(N)c2ccccc2)c(C)c1.Cl (stereo not drawn) [Compound 66] | 5.9 | 2.8 | 3.7 | 66 | 1.192 | 10.5 | 22.1 | 0.486 | None | IC50 ([3]; Example 2): 5.9 µM; DKr/NaL ([3]; ratio, Example 2): 2.8; DNaP/Kr ([3]; ratio, Example 2): 3.7; DNap/NaL ([5]; ratio peak/late IC50, Example 2): 10.7; Cessation of Beating [8]: 66 µM; WT-Prolongation Dose [8]: None
6 | NC(COc1ccccc1C(F)(F)F)c1ccccc1 (stereo not drawn) [drawing 312] | – | – | – | – | – | – | – | – | – | half-life at 100 μM [9, 10]: > 15 days; half-life at 100 μM [9, 11]: > 30 days
7 | NC(COc1cc(C(F)(F)F)cc(C(F)(F)F)c1)c1ccccc1 (stereo not drawn) [drawing 310] | – | – | – | – | – | – | – | – | – | half-life at 100 μM [9, 10]: > 30 days; half-life at 100 μM [9, 11]: 30 days
8 | Cc1cc(C)cc(OCC(N)c2ccccc2)c1 (stereo not drawn) [drawing 309] | – | – | – | – | – | – | – | – | – | half-life at 100 μM [9, 10]: > 30 days; half-life at 100 μM [9, 11]: > 30 days
9 | Cc1ccccc1OCC(N)c1ccccc1.Cl (stereo in doubt) [(S)-25] | – | – | – | – | – | – | – | – | – | Liver S-9, remaining after 1 hr ([2]; human, s9, 1 h): >95% after 1 hr
10 | Cc1cccc(C)c1OCC(N)C(C)(C)C (stereo not drawn) [Compound 12, 1-(2,6-dimethylphenoxy)-3,3-dimethylbutan-2-amine] | 49 | 4.5 | 1.9 | 22 | 1.182 | 8.3 | 91 | 0.648 | >4 | IC50 [5]: 11 µM; WT-EAD Dose [8]: 7.4 µM
11 | CNC(C)COc1c(C)cccc1C (stereo not drawn) [Compound 11, 1-(2,6-dimethylphenoxy)-N-methylpropan-2-amine] | 44 | 1.2 | 2.8 | 133 | 1.112 | 3.4 | 124 | 1.48 | 2.194 | IC50 [5]: 36 µM; WT-EAD Dose [8]: 22 µM
12 | Cl.NC(COc1cc(C(F)(F)F)cc(C(F)(F)F)c1)c1ccccc1 (stereo in doubt) [(S)-78] | – | – | – | – | – | – | – | – | – | Behavior Effect (S)-enantiomer (Male BALBc mice): 2/4 shaking; behavioral effects at 100 mg/kg (Male BALBc mice): Minor lethargy; Liver Microsomes, remaining after 1 hr [1]: >95% after 1 hr; Liver S-9 T1/2 ([2]; human): 0.7222 days
13 | Cc1cc(C)cc(OCC(C)N)c1 (stereo not drawn) [Compound 55] | 49 | 2.9 | 3.1 | 200 | 1.232 | 9.1 | 154 | 4.45 | 1.159 | IC50 [5]: 17 µM; Cessation of Beating [8]: None
